The text below walks through data of EP4745134A1 (Jiangsu Yahong Meditech Co., Ltd., priority 2023, dated 2025).

In one test the target is PRMT5-MTA (Homo sapiens, UniProt O14744). Kind of test: Enzymatic inhibitory activity against PRMT5-MTA (AlphaScreen). The class given is biochemical. The method in brief: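 PRMT5/[…] (1 nM) was preincubated for 30 min at room temperature with 1 µM […] and 2.5 µM SAM, then exposed to compound (10-point, 3-fold from 1000 nM) for 15 min at 23 °C. Histone H4 substrate (5 nM) was added and reacted for 45 min at 23 °C. Symmetric dimethyl-R3 H4 was detected by AlphaScreen and IC50 calculated.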
Chain of PRMT5-MTA (O14744 whole entry): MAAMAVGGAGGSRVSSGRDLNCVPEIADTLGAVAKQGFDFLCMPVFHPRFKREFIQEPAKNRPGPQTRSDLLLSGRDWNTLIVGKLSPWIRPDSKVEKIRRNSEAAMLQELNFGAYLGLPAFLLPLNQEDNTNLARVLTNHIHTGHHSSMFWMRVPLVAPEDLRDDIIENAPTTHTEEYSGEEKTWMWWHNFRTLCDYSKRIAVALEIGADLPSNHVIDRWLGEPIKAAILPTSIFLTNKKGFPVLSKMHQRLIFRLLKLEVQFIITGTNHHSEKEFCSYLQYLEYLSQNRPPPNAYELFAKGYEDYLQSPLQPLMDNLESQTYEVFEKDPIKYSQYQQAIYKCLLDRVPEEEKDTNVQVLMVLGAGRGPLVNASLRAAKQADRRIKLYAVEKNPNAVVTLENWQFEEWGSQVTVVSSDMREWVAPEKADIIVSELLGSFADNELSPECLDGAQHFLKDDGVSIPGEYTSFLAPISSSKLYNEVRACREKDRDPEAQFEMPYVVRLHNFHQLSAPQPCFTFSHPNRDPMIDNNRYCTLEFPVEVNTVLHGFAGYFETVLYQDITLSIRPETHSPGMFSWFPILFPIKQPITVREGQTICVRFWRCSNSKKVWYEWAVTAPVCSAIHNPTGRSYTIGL
Chain of PRMT5-MTA (Q9BQA1 whole entry partner): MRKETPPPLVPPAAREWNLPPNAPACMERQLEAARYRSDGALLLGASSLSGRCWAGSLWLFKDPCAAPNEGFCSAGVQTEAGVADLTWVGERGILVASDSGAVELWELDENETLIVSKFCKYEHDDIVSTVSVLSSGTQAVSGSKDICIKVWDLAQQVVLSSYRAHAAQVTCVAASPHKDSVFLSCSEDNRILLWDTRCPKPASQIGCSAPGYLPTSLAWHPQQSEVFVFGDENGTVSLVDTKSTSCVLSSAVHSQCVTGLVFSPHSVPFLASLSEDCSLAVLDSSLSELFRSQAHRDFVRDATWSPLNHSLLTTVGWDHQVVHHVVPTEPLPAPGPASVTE
On the technique in general: In Alpha technology, singlet oxygen from a donor bead excites a nearby acceptor bead.

The subject of the next test is HCT116 MTAP KO cells. The experiment in a line: Inhibitory activity against cell proliferation (CellTiter Glo, 6 days), HCT116 MTAP KO. It counts as cell-based. To be noted: for IC50: Homo sapiens, HCT-116, 144 h, HCT116 MTAP KO cells, 6 days, CellTiter Glo, read-out: HCT116 MTAP KO IC50; for Selectivity HCT 116-WT/ HCT116 MTAP KO: ratio of IC50 HCT116-WT / HCT116 MTAP KO. The method in brief:
(§1)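 Viability is measured by CellTiter Glo luminescence on day 7, following a 6-day treatment with compounds serially diluted 4-fold over 8 points from 10000 nM. Both lines are plated at 250 cells per well and cultured overnight beforehand.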
(In general: In ATP-based viability assays light output follows the ATP content of the culture.)

A further test concerns HCT116-WT cells. The experiment in a line: Inhibitory activity against cell proliferation (CellTiter Glo, 6 days), HCT116-WT. The class given is cell-based. To be noted: 144 h, HCT116-WT cells, 6 days, CellTiter Glo; read-out: HCT116-WT IC50. The method in brief:
as §1

SMILES strings stand for the structures. Read-outs that look alike come from different tables or passages of the source. Some results are limits rather than exact numbers.

By IC50 is commonly meant the concentration at which inhibition is half-maximal.

Take `CCOc1ccc(N2CC(C)CN2C(=O)c2cc3c(cc2C)nc(N)c2cnn(C)c23)nn1` (centres unmarked) [Example 385, (4-amino-1,7-dimethyl-1H-pyrazolo[4,3-c]quinolin-8-yl)(2-(6-ethoxypyridazin-3-yl)-4-methylpyrazolidin-1-yl)methanone]: the IC50 at PRMT5-MTA (read-out: IC50) came out at 5.4 nM; in the test with HCT116 MTAP KO cells, 104 nM; in the test with HCT116-WT cells it was 3770 nM. Also, the “Selectivity HCT 116-WT/ HCT116 MTAP KO” value with HCT116 MTAP KO cells is reported as 36.22.
In the case of `Cc1cc2cc(C(=O)N(Cc3ccc(C(F)(F)F)cn3)N(C)c3ncccc3OC(F)F)ccc2nc1N` [Example 93, 2-amino-N'-(3-(difluoromethoxy)pyridin-2-yl)-N',3-dimethyl-N-((5-(trifluoromethyl)pyridin-2-yl)methyl)quinoline-6-carbohydrazide], the IC50 at PRMT5-MTA (read-out: IC50) stood at 1.4 nM; with HCT116 MTAP KO cells, 20 nM; with HCT116-WT cells, 612 nM. The “Selectivity HCT 116-WT/ HCT116 MTAP KO” value with HCT116 MTAP KO cells came out at 30.60.
Turning to `Cn1ncc2c(N)nc3cc(Cl)c(C(=O)N4CC(C(F)(F)F)CN4c4cccc(F)n4)cc3c21` (centres unmarked) [Example 353, (4-amino-7-chloro-1-methyl-1H-pyrazolo [4,3-c]quinolin-8-yl)(2-(6-fluoropyridin-2-yl)-4-(trifluoromethyl)pyrazolidin-1-yl) methanone], the results for the IC50 at PRMT5-MTA (read-out: IC50), with HCT116 MTAP KO cells and with HCT116-WT cells were 6.3 nM, 108 nM and 1820 nM, respectively. Moreover, in the test on HCT116 MTAP KO cells, the “Selectivity HCT 116-WT/ HCT116 MTAP KO” value came out at 16.81.
In the same order, the values of `Cn1ncc2c(N)nc3cc(Cl)c(C(=O)N4CC5(CC5)CN4c4ncc(Cl)cc4F)cc3c21` [Example 347, (4-amino-7-chloro-1-methyl-1H-pyrazolo [4,3-c]quinolin-8-yl)(6-(5-chloro-3-fluoropyridin-2-yl)-5,6-diazaspiro[2.4]heptan-5-yl)methanone] are 7.1 nM, 32 nM, 1280 nM and 39.88.
In the same order, the values of `Cc1cc2cc(C(=O)N(Cc3ccc(-c4cscn4)cn3)N(C)c3ncccn3)ccc2nc1N` [Example 221, 2-amino-N',3-dimethyl-N'-(pyrimidin-2-yl)-N-((5-(thiazol-4-yl)pyridin-2-yl)methyl)quinoline-6-carbohydrazide] are 2.3 nM, 69 nM, 1870 nM and 27.16.
As for `Cc1cc2cc(C(=O)N(Cc3ccc(C(F)(F)F)cn3)N(C)c3nccc4occc34)ccc2nc1N` [Example 42, 2-amino-N'-(furo[3,2-c]pyridin-4-yl)-N', 3-dimethyl-N-((5-(trifluoromethyl)pyridin-2-yl)methyl)quinoline-6-carbohydrazide], the IC50 turned out to be 3 nM on PRMT5-MTA (read-out: IC50), 49 nM with HCT116 MTAP KO cells and 2650 nM in the test with HCT116-WT cells. The “Selectivity HCT 116-WT/ HCT116 MTAP KO” value with HCT116 MTAP KO cells is 54.14.
In the same order, the values of `Cc1cc2cc(C(=O)N(Cc3ccc(C(F)(F)F)cn3)N(C)c3ccccc3F)ccc2nc1N` [Example 111, 2-amino-N'-(2-fluorophenyl)-N',3-dimethyl-N-((5-(trifluoromethyl)pyridin-2-yl)methyl)quinoline-6-carbohydrazide] are 1.7 nM, 38 nM, 1040 nM and 27.47.
On to `Cc1cc2cc(C(=O)N(Cc3ccc4ccccc4n3)N(C)c3ncccn3)ccc2nc1N` [Example 51, 2-amino-N',3-dimethyl-N'-(pyrimidin-2-yl)-N-(quinolin-2-ylmethyl)quinoline-6-carbohydrazide], for which the concentration for half-maximal inhibition (IC50) at PRMT5-MTA (read-out: IC50) was 1.7 nM; in the test with HCT116 MTAP KO cells it was 116 nM; with HCT116-WT cells, 2060 nM. Besides, the “Selectivity HCT 116-WT/ HCT116 MTAP KO” value in the test on HCT116 MTAP KO cells is listed as 17.78.
`Cc1cc2cc(C(=O)N(Cc3ccc(-c4cnc5ccccc5c4)cn3)N(C)c3ncccn3)ccc2nc1N` [Example 197, 2-amino-N',3-dimethyl-N'-(pyrimidin-2-yl)-N-((5-(quinolin-3-yl)pyridin-2-yl)methyl)quinoline-6-carbohydrazide]: the IC50 at PRMT5-MTA (read-out: IC50) turned out to be 1.1 nM; in the test on HCT116 MTAP KO cells it was 34 nM; with HCT116-WT cells it was 645 nM. In the test on HCT116 MTAP KO cells, the “Selectivity HCT 116-WT/ HCT116 MTAP KO” value was determined as 18.97.
For the molecule `COc1ccnc(N(C)N(Cc2ccc(C(F)(F)F)cn2)C(=O)c2ccc3nc(N)c(C)cc3c2)n1` [Example 76, 2-amino-N'-(4-methoxypyrimidin-2-yl)-N',3-dimethyl-N-((5-(trifluoromethyl)pyridin-2-yl)methyl)quinoline-6-carbohydrazide], the IC50 stood at 1.6 nM on PRMT5-MTA (read-out: IC50), 98 nM in the test with HCT116 MTAP KO cells and 2150 nM in the test on HCT116-WT cells. Moreover, the “Selectivity HCT 116-WT/ HCT116 MTAP KO” value in the test on HCT116 MTAP KO cells came out at 21.94.
Turning to `Cc1cc2nc(N)c3cnn(C)c3c2cc1C(=O)N1CC(CC(F)(F)F)CN1c1ncccc1F` (centres unmarked) [Example 408], the IC50 against PRMT5-MTA is 4.8 nM; with HCT116 MTAP KO cells, 10 nM; in the test on HCT116-WT cells it was 203 nM. Further, in the test on HCT116 MTAP KO cells, the “Selectivity HCT 116-WT/ HCT116 MTAP KO” value is given as 20.30.
With `Cc1cc2nc(N)c3cnn(C)c3c2cc1C(=O)N1CCC(C)N1c1ncc(Br)cc1F` (centres unmarked) [Example 390, (4-amino-1,7-dimethyl-1H-pyrazolo[4,3-c]quinolin-8-yl)(2-(5-bromo-3-fluoropyridin-2-yl)-3-methylpyrazolidin-1-yl)metha none], the IC50 was 8.6 nM at PRMT5-MTA (read-out: IC50), 233 nM in the test with HCT116 MTAP KO cells and more than 10000 nM in the test with HCT116-WT cells. Besides, in the test with HCT116 MTAP KO cells, the “Selectivity HCT 116-WT/ HCT116 MTAP KO” value was more than 42.92.
In the case of `Cc1cc2cc(C(=O)N(Cc3ccc(-c4nncs4)cn3)N(c3ncccn3)C3CC3)ccc2nc1N` [Example 250, N-((5-(1,3,4-thiadiazol-2-yl)pyridin-2-yl)methyl)-2-amino-N'-cyclopropyl-3-methyl-N'-(pyrimidin-2-yl)quinoline-6-carbohy drazide], the IC50 was found to be 3.7 nM at PRMT5-MTA (read-out: IC50), 41 nM in the test with HCT116 MTAP KO cells and 820 nM with HCT116-WT cells. Also, the “Selectivity HCT 116-WT/ HCT116 MTAP KO” value in the test with HCT116 MTAP KO cells turned out to be 20.00.
The matching figures for `Cc1cc2cc(C(=O)N(Cc3ccc(C(C)O)cn3)N(C)c3ncccn3)ccc2nc1N` (centres unmarked) [Example 295, 2-amino-N-((5-(1-hydroxyethyl)pyridin-2-yl)methyl)-N',3-dimethyl-N-(pyrimidin-2-yl) quinoline-6-carbohydrazide]: 2 nM, 399 nM, 4940 nM and 12.38.
With `Cc1cc2cc(C(=O)N(Cc3ccc(-c4cc[nH]c4)cn3)N(C)c3ncccn3)ccc2nc1N` [Example 191, N-((5-(1H-pyrrol-3-yl)pyridin-2-yl)methyl)-2-amino-N',3-dimethyl-N'-(pyrimidin-2-yl)quinoline-6-carbohydrazide], the results for the IC50 on PRMT5-MTA (read-out: IC50), with HCT116 MTAP KO cells and in the test with HCT116-WT cells were 2.5 nM, 112 nM and 2340 nM, respectively. Besides, the “Selectivity HCT 116-WT/ HCT116 MTAP KO” value in the test on HCT116 MTAP KO cells stood at 20.90.
Turning to `C=Cc1cc2cc(C(=O)N(Cc3ccc(C(F)(F)F)cn3)N(C)c3ncccn3)ccc2nc1N` [Example 304, 2-amino-N'-methyl-N'-(pyrimidin-2-yl)-N-((5-(trifluoromethyl)pyridin-2-yl)methyl)-3-v inylquinoline-6-carbohydrazide], the IC50 is 3.9 nM on PRMT5-MTA (read-out: IC50), 204 nM with HCT116 MTAP KO cells and 3630 nM in the test with HCT116-WT cells. Besides, the “Selectivity HCT 116-WT/ HCT116 MTAP KO” value with HCT116 MTAP KO cells was 17.81.
In the same order, the values of `Cn1ncc2c(N)nc3cc(Cl)c(C(=O)N4CC5(CN4c4ncc(Br)cc4F)CC(F)(F)C5)cc3c21` [Example 413, (4-amino-7-chloro-1-methyl-1H-pyrazolo [4,3-c]quinolin-8-yl)(7-(5-bromo-3-fluor opyridin-2-yl)-2,2-difluoro-6,7-diazaspiro[3.4]octan-6-yl)methanone] are 4.3 nM, 26 nM, 390 nM and 15.00.
In the same order, the values of `Cc1cc2nc(N)c3cnn(C)c3c2cc1C(=O)N1CC(C)CN1c1ncc(-c2cncs2)cc1F` (centres unmarked) [Example 481, (4-amino-1,7-dimethyl-1H-pyrazolo[4,3-c]quinolin-8-yl)(2-(3-fluoro-5-(thiazol-5-yl)pyridin-2-yl)-4-methylpyrazolidin-1-yl)methanone] are 3.7 nM, 15 nM, 708 nM and 47.20.
In the same order, the values of `CC1CN(C(=O)c2cc3c(cc2Cl)nc(N)c2cnn(C)c23)N(c2cccc(F)c2F)C1` (centres unmarked) [Example 402, (4-amino-7-chloro-1-methyl-1H-pyrazolo [4,3-c]quinolin-8-yl)(2-(2,3-difluorophenyl)-4-methylpyrazolidin-1-yl)methanone] are 6.4 nM, 24 nM, 569 nM and 23.71.
On to `COc1ccccc1N1CC(C)CN1C(=O)c1cc2c(cc1C)nc(N)c1cnn(C)c12` (centres unmarked) [Example 401, (4-amino-1,7-dimethyl-1H-pyrazolo[4,3-c]quinolin-8-yl)(2-(2-methoxyphenyl)-4-methylpyrazolidin-1-yl)methanone], for which the values for the concentration for half-maximal inhibition (IC50) on PRMT5-MTA (read-out: IC50), with HCT116 MTAP KO cells and in the test on HCT116-WT cells were 3.5 nM, 204 nM and more than 10000 nM, respectively. The “Selectivity HCT 116-WT/ HCT116 MTAP KO” value with HCT116 MTAP KO cells is recorded as more than 49.02.
